# Where “and” joins values, the source holds several entries; their conditions need not be identical. Identical values can stand only once. Numbered stars: 1 amine (or outer) side, 2 acyl side, 3 side chain; on linkers, the order of the positions; unused ones are H or OH. Square brackets hold non-standard residues; d marks the D form. Peptide text beside a SMILES is read from it. ξ: configuration not given here. X1 = CSCC[C@H](NC(=N)[C@H](Cc1c[nH]cn1)N[*:1])C(=O)[*:2]; pS = N[C@@H](COP(=O)(O)O)C(=O)O; Ile(3ξ) = CCC(C)[C@H](N)C(=O)O
# Tested on: Balb/c mice
# Experiment: 31-day HDM-induced asthma model, BAL cells
# Assay type: in vivo, mouse
# Conditions: for B cells / DCs / Eosinophils / Macrophages / Neutrophils / T cells / Total cells: BAL, HDM-sensitized, P140 i.v. 4 mg/kg day 25, individual mice
# Protocol: The aim of this study was to evaluate the effect of the P140 phosphopeptide administered systemically (intravenously) in a 31-day model of HDM-induced asthma in mice. The P140 phosphopeptide was solubilized in sterile water (Braun) and 10× concentrate sterile saline was added to adjust osmolarity to 300 mosm. Osmolarity was controlled with a micro osmometer (Löser, type 15) and validated (303 mosm). The P140 phosphopeptide was used in vivo at the dose of 4 mg/kg by intravenous (i.v.) routes. Control animals received equivalent volumes (2 ml/kg) of saline (Table 8).
# Nine-week-old male Balb/c mice were sensitized by intranasal (i.n.) administration of HDM extract (Stallergenes): 1 μg in 25 μl saline on days 0, 1, 2, 3, 4, and 10 μg on days 14 and 21. Mice were challenged by i.n. administration of HDM (1 μg) and/or saline on days 28, 29 and 30. Mice were treated by i.v. injection (2 ml/kg) of P140 or solvent on day 25 (see FIG. 14).
# BAL was performed after airway responsiveness measurement twenty-four hours after HDM challenge as described (Daubeuf et al. 2012). Mice were anaesthetized IP (Ketamine 150 mg/kg—Xylasine 10 mg/kg). Blood was collected from the heart, centrifuged at 10,000 g for 2 min and serum stored at −20° C.
# After semi-excision of the trachea, a plastic cannula was inserted, and airspace washed with 0.5 ml of 0.9% NaCl injected with a 1 ml syringe. This procedure was performed 10 times. The initial concentrated supernatant of the 2 first lavages (volume=2×0.5 ml administered, approximately 0.5 ml recovered) was collected for cytokine measurements. The remaining BAL fluid was centrifuged (300 g for 5 min, 4° C.), and cell pellets pooled. The cell pellet was suspended in 500 μl of 0.9% NaCl and used for total cell counts evaluated on a Muse® Cell Analyser (Millipore). Differential cell counts were assessed by flow cytometry (LSRII® cytometer, BD Bioscience). BAL cells were added with FCblock (0.5 μl, 553142, BD Bioscience) in a black microplate, incubated for 20 min at room temperature. Then, marker antibodies were added: CD11c-FITC (557400, BD bioscience), Gr-1-PeeFluor610 (61-5931-82, eBioscience), F4/80-PE (12-4801-82, eBioscience), CD11b-APC-Cy7 (557657, BD bioscience), CD45-AlexaFluor700 (103128, BioLegend), CD3-BV605 (564009, BD bioscience), CD19-PE-Cy7 (552854, BD bioscience). Antibodies were incubated with BAL cells for 30 min at room temperature before DAPI (5 μl, BD bioscience) addition, and flow cytometry was performed immediately.
# All mice were sensitized to HDM on days 0, 1, 2, 3, 4, 14, 21, and challenged either with saline ([…]) or HDM (challenge with allergen). Results are presented as means±SEM. Differences between groups were tested for statistical significance using Student's t test for inflammatory cells and a two-way ANOVA followed by Bonferroni post-test for airway responses.
# [1] = saline-challenged (chronic asthma)
# [2] = chronic asthma (saline-challenged), P140 4 mg/kg i.v. day 25
# [3] = chronic asthma (saline-challenged), P140 4 mg/kg i.v. day 25, non-significant
smiles,measurement,setting,value
CCC(C)[C@H](NC(=O)[C@H](Cc1ccccc1)NC(=O)[C@H](C)NC(=O)[C@H](Cc1ccc(O)cc1)NC(=O)CNC(=O)[C@H](CCCNC(=N)N)NC(=O)[C@@H]1CCCN1C(=O)[C@H](CCCCN)NC(=O)CNC(=O)[C@H](COP(=O)(O)O)NC(=O)[C@H](CCCNC(=N)N)NC(=O)[C@H](CCCCN)NC(=O)[C@H](CO)NC(=O)[C@H](Cc1ccc(O)cc1)NC(=O)[C@@H](NC(=O)[C@H](CCSC)NC(=N)[C@H](Cc1c[nH]cn1)NC(=O)[C@@H](NC(=O)[C@@H](N)CCCNC(=N)N)C(C)CC)C(C)C)C(=O)N[C@@H](CCC(=O)O)C(=O)N[C@@H](Cc1ccc(O)cc1)C(=O)O (stereo partly shown) [Compound P140] (H-R[Ile(3ξ)][X1]VYSKR[pS]GKPRGYAF[Ile(3ξ)]EY-OH),B cells,HDM-challenged (HDM + P140),59 092 and 102 246 and 42 085 and 25 443 and 116 814 and 115 000 and 53 947 and 170 980
same,DCs,HDM-challenged (HDM + P140),1 034 and 2 238 and 1 793 and 242 and 586 and 1 350 and 733 and 1 928
same,Eosinophils,HDM-challenged (HDM + P140),955 824 and 1 404 942 and 636 065 and 342 046 and 1 283 190 and 1 036 803 and 538 210 and 1 010 666
same,Macrophages,HDM-challenged (HDM + P140),58 705 and 118 771 and 314 326 and 125 002 and 34 364 and 38 709 and 29 121 and 73 491
same,Neutrophils,HDM-challenged (HDM + P140),606 700 and 510 027 and 500 004 and 147 616 and 371 317 and 487 119 and 284 503 and 24 426
same,T cells,HDM-challenged (HDM + P140),400 329 and 735 865 and 383 074 and 243 813 and 469 834 and 502 985 and 334 784 and 1 056 303
same,Total cells,HDM-challenged (HDM + P140),2140000 and 2992000 and 2190000 and 1010000 and 2310000 and 2220000 and 1270000 and 2410000
same,B cells,[1],2 297 and 44 668 and 22 879 and 11 101 and 7 660
same,DCs,[1],0 and 484 and 461 and 319 and 160
same,Eosinophils,[1],124 514 and 450 346 and 448 074 and 205 568 and 239 527
same,Macrophages,[1],130 734 and 267 885 and 360 987 and 177 815 and 73 725
same,Neutrophils,[1],2 584 and 35 734 and 23 986 and 34 836 and 2 394
same,T cells,[1],57 711 and 323 623 and 294 011 and 208 439 and 86 810
same,Total cells,[1],448000 and 1390000 and 1510000 and 815000 and 484000
same,Inflammatory cell recruitment in BAL,"HDM-challenged mice, vs solvent group",no effect
same,Increase of number of macrophages in BAL vs solvent group,[2],4.5 fold
same,"Number of neutrophils in BAL, change vs solvent group",[2],−71%
same,"Number of B cells in BAL, change vs solvent group",[3],−40%
same,"Number of eosinophils in BAL, change vs solvent group",[3],−25%
